From patent US20160311788A1, “Antifouling Compounds And Use Thereof” (National University of Singapore, priority 2008, published 2016)
Where a name gives a salt, the structure may show the parent alone.

What was measured:
[1] = cited from earlier work
[2] = system: marine bacteria strain S29; experiment: disc inhibition assay, strain S29; format: cell-based, Bacillus hwajinpoensis; settings: Guptibacillus hwajinpoensis, S29, 24 h; for zone of inhibition at 5 µg/disc: strain 29, 5 ug
Procedure, shortened: (§1)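 Zone-of-inhibition diameters (caliper, n=2 averaged) were recorded after overnight dark incubation at 35° C. Test discs of 6 mm bore 50 μg compound delivered in DMSO, placed on lawns of the marine strain grown in marine broth and spread on Marine Agar; solvent discs served as controls.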

[3] = system: marine bacteria strain S4; experiment: disc inhibition assay, strain S4; format: cell-based, Bacillus algicola; settings: Guptibacillus algicola, S4, 24 h; for zone of inhibition at 5 µg/disc: strain 4, 5 ug
Procedure, shortened: as §1

[4] = system: marine bacteria strain S9; experiment: disc inhibition assay, strain S9; format: cell-based, Bacillus algicola; settings: Guptibacillus algicola, S9, 24 h; for zone of inhibition at 5 µg/disc: strain 9, 5 ug
Procedure, shortened: as §1

[5] = system: marine bacteria strain S16; experiment: disc inhibition assay, strain S16; format: cell-based, Pseudoalteromonas piscicida
Procedure, shortened: as §1

[6] = system: Pseudomonas aeruginosa (strain LMG 12228; ATCC 15692); experiment: disc inhibition assay, REF 3; format: cell-based
Method: (§2) 13 strains of marine bacteria were isolated from fouling communities located in the coastal waters around Singapore. These were characterized in earlier studies and reported in Teo et al. (U.S. patent application Ser. No. 11/265,833) and Choong et al (in prep). In addition, four reference bacterial strains were added tested: Escherichia coli (Strain K12, ATCC 15222), E. coli (strain DH5a), Pseudomonas aeruginosa (strain LMG 12228; ATCC 15692) and P. putida (strain KT2440; ATCC 47054). All the bacteria were also tested against five antibiotics: ampicillin (AMP), tetracycline (TETR), erythromycin (ERY), chloramphenicol (CHL) and streptomycin (STREP).
(§3) Disks comprising the compounds to be tested were prepared as follows. The antibacterial assay, the pure compounds were made up to a concentration of 2 mgml^−1 in DMSO. 25 μl of the stock was pipetted onto each 6 mm sterile disc (Macherey-Nagel #484000) to obtain 50 μg of compound per disc. Equivalent volume of DMSO was used inoculated for the control.
(§4) For all disk inhibition assays, bacterial cultures were grown in marine broth (Pronadisa #1217.00). Sterile swabs dipped into the cultures were used to inoculate Marine Agar plates with a bacterial lawn by smearing the culture over the surface. After inoculating the plates, discs with antibiotics, pharmaceuticals or control blanks were placed on each plate. Each concentration of antibiotic or pharmaceutical was tested with two replicates. After the disks were placed on the agar surface, plates were incubated overnight in the dark at 35° C. After incubation, plates were examined for zones of inhibition or clearing around control and treated disks. The diameter of any zone of clearing or inhibition was measured using Vernier calipers. There were two replicates per treatment, and the average was taken. There was no zone of inhibition around the control blanks in all the assays.

[7] = system: marine bacteria strain S14; experiment: disc inhibition assay, strain S14; format: cell-based, Vibrio probioticus; settings: for zone of inhibition: strain 14, 5 ug
[8] = system: marine bacteria strain S30; experiment: disc inhibition assay, strain S30; format: cell-based, Bacillus borophilicus; settings: Bacillus, S30, 24 h; for zone of inhibition at 5 µg/disc: strain 30, 5 ug
Procedure, shortened: as §1

[9] = system: marine bacteria strain S28; experiment: disc inhibition assay, strain S28; format: cell-based, Arthrobacter protophormial
Procedure, shortened: as §1

[10] = system: marine bacteria strain S17; experiment: disc inhibition assay, strain S17; format: cell-based, Gordonia terrae
Procedure, shortened: as §1

[11] = system: Escherichia coli (Strain K12; ATCC 15222); experiment: disc inhibition assay, REF 1; format: cell-based
Method: as §2, §3, §4

[12] = system: marine bacteria strain S18; experiment: disc inhibition assay, strain S18; format: cell-based, Microbacterium esteraromaticum
[13] = system: marine bacteria strain S27; experiment: disc inhibition assay, strain S27; format: cell-based, Tenacibaculum lutimaris
Procedure, shortened: as §1

[14] = system: marine bacteria strain S1; experiment: disc inhibition assay, strain S1; format: cell-based, Rhodovulum iodosum
Procedure, shortened: as §1

[15] = system: marine bacteria strain S3; experiment: disc inhibition assay, strain S3; format: cell-based, Erythrobacter aquimaris
Procedure, shortened: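 Antibacterial susceptibility was measured by agar disc diffusion. Compounds dissolved in DMSO were applied to 6 mm sterile discs and laid on Marine Agar lawns of a Singapore coastal marine bacterium cultured in marine broth. After overnight dark incubation at 35° C, clearing zone diameters were measured with Vernier calipers, and the two replicates were averaged.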

[16] = system: Pseudomonas putida (Strain KT2440; BCRC 10459); experiment: disc inhibition assay, REF 4; format: cell-based
Method: as §2, §3, §4

[17] = system: marine bacteria strain S10; experiment: disc inhibition assay, strain S10; format: cell-based, Halobacillus trueperi; settings: Halobacillus trueperi, S10, 24 h; for zone of inhibition at 5 µg/disc: strain 10, 5 ug
Procedure, shortened: as §1

[18] = system: Escherichia coli (Strain DH5a); experiment: disc inhibition assay, REF 2; format: cell-based
Method: as §2, §3, §4

Compound: CN(C)C(=O)C(CCN1CCC(O)(c2ccc(Cl)cc2)CC1)(c1ccccc1)c1ccccc1 [Loperamide hydrochloride]
- solubility in water [1]: slightly soluble

Compound: CC[C@H]1OC(=O)[C@H](C)[C@@H](O[C@H]2C[C@@](C)(OC)[C@@H](O)[C@H](C)O2)[C@H](C)[C@@H](O[C@@H]2O[C@H](C)C[C@H](N(C)C)[C@H]2O)[C@](C)(O)C[C@@H](C)C(=O)[C@H](C)[C@@H](O)[C@]1(C)O [ERY, Erythromycin, reference compound]
- zone of inhibition at 5 µg/disc [2]: > 10 mm
- zone of inhibition at 15 µg/disc ([2]; strain 29, 15 ug): > 10 mm
- zone of inhibition at 5 µg/disc [3]: > 10 mm
- zone of inhibition at 15 µg/disc ([3]; strain 4, 15 ug): > 10 mm
- zone of inhibition at 5 µg/disc [4]: > 10 mm
- zone of inhibition at 15 µg/disc ([4]; strain 9, 15 ug): > 10 mm
- zone of inhibition at 5 µg/disc ([5]; Pseudoalteromonas piscicida, S16, 24 h, strain 16, 5 ug): 2 to 5 mm
- zone of inhibition at 15 µg/disc ([5]; Pseudoalteromonas piscicida, S16, 24 h, strain 16, 15 ug): 2 to 5 mm
- zone of inhibition ([6]; REF 3, 5 ug): + (2-5 mm zone of inhibition around each disk was observed.)
- zone of inhibition ([6]; REF 3, 15 ug): + (2-5 mm zone of inhibition around each disk was observed.)
- zone of inhibition at 15 µg/disc ([7]; Vibrio, S14, 24 h): 2 to 5 mm
- zone of inhibition [7]: −
- zone of inhibition at 5 µg/disc [8]: 5 to 10 mm
- zone of inhibition at 15 µg/disc ([8]; strain 30, 15 ug): 5 to 10 mm
- zone of inhibition at 5 µg/disc ([9]; Arthrobacter, S28, 24 h, strain 28, 5 ug): > 10 mm
- zone of inhibition at 15 µg/disc ([9]; Arthrobacter, S28, 24 h, strain 28, 15 ug): > 10 mm
- zone of inhibition at 5 µg/disc ([10]; Gordonia terrae, S17, 24 h, strain 17, 5 ug): > 10 mm
- zone of inhibition at 15 µg/disc ([10]; Gordonia terrae, S17, 24 h, strain 17, 15 ug): > 10 mm
- zone of inhibition ([11]; REF 1, 5 ug): −
- zone of inhibition ([11]; REF 1, 15 ug): + (2-5 mm zone of inhibition around each disk was observed.)
- zone of inhibition at 5 µg/disc ([12]; Microbacterium esteraromaticum, S18, 24 h, strain 18, 5 ug): 2 to 5 mm
- zone of inhibition at 15 µg/disc ([12]; Microbacterium esteraromaticum, S18, 24 h, strain 18, 15 ug): 5 to 10 mm
- zone of inhibition at 5 µg/disc ([13]; Tenacibaculum lutimaris, S27, 24 h, strain 27, 5 ug): 5 to 10 mm
- zone of inhibition at 15 µg/disc ([13]; Tenacibaculum lutimaris, S27, 24 h, strain 27, 15 ug): 5 to 10 mm
- zone of inhibition ([14]; strain 1, 5 ug): −
- zone of inhibition ([14]; strain 1, 15 ug): −
- zone of inhibition at 5 µg/disc ([15]; Qipengyuania aquimaris, S3, 24 h, strain 3, 5 ug): 5 to 10 mm
- zone of inhibition at 15 µg/disc ([15]; Qipengyuania aquimaris, S3, 24 h, strain 3, 15 ug): 5 to 10 mm
- zone of inhibition ([16]; REF 4, 5 ug): + (2-5 mm zone of inhibition around each disk was observed.)
- zone of inhibition ([16]; REF 4, 15 ug): + (2-5 mm zone of inhibition around each disk was observed.)
- zone of inhibition at 5 µg/disc [17]: 5 to 10 mm
- zone of inhibition at 15 µg/disc ([17]; strain 10, 15 ug): > 10 mm
- zone of inhibition ([18]; REF 2, 5 ug): −
- zone of inhibition ([18]; REF 2, 15 ug): + (2-5 mm zone of inhibition around each disk was observed.)

Compound: CN(C)[C@@H]1C(O)=C(C(N)=O)C(=O)[C@@]2(O)C(O)=C3C(=O)c4c(O)cccc4[C@@](C)(O)[C@H]3C[C@@H]12 [TETR, Tetracycline, reference compound]
- zone of inhibition at 5 µg/disc [2]: 2 to 5 mm
- zone of inhibition at 30 µg/disc ([2]; strain 29, 30 ug): 5 to 10 mm
- zone of inhibition at 5 µg/disc [3]: 2 to 5 mm
- zone of inhibition at 30 µg/disc ([3]; strain 4, 30 ug): 5 to 10 mm
- zone of inhibition at 5 µg/disc [4]: 2 to 5 mm
- zone of inhibition at 30 µg/disc ([4]; strain 9, 30 ug): 5 to 10 mm
- zone of inhibition ([5]; strain 16, 5 ug): −
- zone of inhibition ([5]; strain 16, 30 ug): −
- zone of inhibition ([6]; REF 3, 5 ug): + (2-5 mm zone of inhibition around each disk was observed.)
- zone of inhibition ([6]; REF 3, 30 ug): ++ (5-10 mm zone was observed.)
- zone of inhibition at 30 µg/disc ([7]; Vibrio, S14, 24 h): 2 to 5 mm
- zone of inhibition [7]: −
- zone of inhibition at 5 µg/disc [8]: 2 to 5 mm
- zone of inhibition at 30 µg/disc ([8]; strain 30, 30 ug): 2 to 5 mm
- zone of inhibition at 30 µg/disc ([9]; Arthrobacter, S28, 24 h, strain 28, 30 ug): 2 to 5 mm
- zone of inhibition ([9]; strain 28, 5 ug): −
- zone of inhibition ([10]; strain 17, 5 ug): −
- zone of inhibition ([10]; strain 17, 30 ug): −
- zone of inhibition ([11]; REF 1, 5 ug): + (2-5 mm zone of inhibition around each disk was observed.)
- zone of inhibition ([11]; REF 1, 30 ug): ++ (5-10 mm zone was observed.)
- zone of inhibition at 30 µg/disc ([12]; Microbacterium esteraromaticum, S18, 24 h, strain 18, 30 ug): 2 to 5 mm
- zone of inhibition ([12]; strain 18, 5 ug): −
- zone of inhibition at 30 µg/disc ([13]; Tenacibaculum lutimaris, S27, 24 h, strain 27, 30 ug): 2 to 5 mm
- zone of inhibition ([13]; strain 27, 5 ug): −
- zone of inhibition ([14]; strain 1, 5 ug): −
- zone of inhibition ([14]; strain 1, 30 ug): −
- zone of inhibition ([15]; strain 3, 5 ug): −
- zone of inhibition ([15]; strain 3, 30 ug): −
- zone of inhibition ([16]; REF 4, 5 ug): ++ (5-10 mm zone was observed.)
- zone of inhibition ([16]; REF 4, 30 ug): ++ (5-10 mm zone was observed.)
- zone of inhibition at 5 µg/disc [17]: 2 to 5 mm
- zone of inhibition at 30 µg/disc ([17]; strain 10, 30 ug): 2 to 5 mm
- zone of inhibition ([18]; REF 2, 5 ug): + (2-5 mm zone of inhibition around each disk was observed.)
- zone of inhibition ([18]; REF 2, 30 ug): ++ (5-10 mm zone was observed.)
